Measured values taken from patent publication US9670161B2, “5-fluoro-N-(pyridin-2-yl)pyridin-2-amine derivatives containing a sulfone group” (BAYER PHARMA AKTIENGESELLSCHAFT, priority 2012, dated 2017).

Key:
[1] = system: NCI-H460, human non-small cell lung carcinoma cells; experiment: Proliferation assay, NCI-H460 (crystal violet); format: cell-based; settings: 96 h, NCI-H460, 4 days, read-out: Inhibition of NCI-H460 cell proliferation IC50
Description: (§1) Cultivated tumour cells (HeLa, human cervical tumour cells, ATCC CCL-2; NCI-H460, human non-small cell lung carcinoma cells, ATCC HTB-177; A2780, human ovarian carcinoma cells, ECACC #93112519; DU 145, hormone-independent human prostate carcinoma cells, ATCC HTB-81; HeLa-MaTu-ADR, multidrug-resistant human cervical carcinoma cells, EPO-GmbH Berlin; Caco-2, human colorectal carcinoma cells, ATCC HTB-37; B16F10, mouse melanoma cells, ATCC CRL-6475) were plated at a density of 5,000 cells/well (DU145, HeLa-MaTu-ADR), 3,000 cells/well (NCI-H460, HeLa), 2,500 cells/well (A2780), 1,500 cells/well (Caco-2), or 1,000 cells/well (B16F10) in a 96-well multititer plate in 200 μL of their respective growth medium supplemented 10% fetal calf serum. […] Cell proliferation was determined by staining the cells with crystal violet: the cells were fixed by adding 20 μl/measuring point of an 11% glutaric aldehyde solution for 15 minutes at room temperature. […] The extinction was determined by photometry at a wavelength of 595 nm. The change of cell number, in percent, was calculated by normalization of the measured values to the extinction values of the zero-point plate (=0%) and the extinction of the untreated (0 μm) cells (=100%). […]

[2] = system: DU 145, hormone-independent human prostate carcinoma cells; experiment: Proliferation assay, DU145 (crystal violet); format: cell-based; settings: DU-145, 96 h, DU145, 4 days, read-out: Inhibition of DU145 cell proliferation IC50
Description: as §1

[3] = system: B16F10, mouse melanoma cells; experiment: Proliferation assay, B16F10 (crystal violet); format: cell-based; settings: B16-F10, 96 h, B16F10, 4 days, read-out: Inhibition of B16F10 cell proliferation IC50
Description: as §1

CDK9/CycT1 = CDK9/CycT1 (Homo sapiens (Human), UniProt P50750); experiment: CDK9/CycT1 kinase assay (TR-FRET, 10 μM ATP); format: biochemical; settings: Method 1a
CDK9/CycT1, sequence (P50750 whole entry): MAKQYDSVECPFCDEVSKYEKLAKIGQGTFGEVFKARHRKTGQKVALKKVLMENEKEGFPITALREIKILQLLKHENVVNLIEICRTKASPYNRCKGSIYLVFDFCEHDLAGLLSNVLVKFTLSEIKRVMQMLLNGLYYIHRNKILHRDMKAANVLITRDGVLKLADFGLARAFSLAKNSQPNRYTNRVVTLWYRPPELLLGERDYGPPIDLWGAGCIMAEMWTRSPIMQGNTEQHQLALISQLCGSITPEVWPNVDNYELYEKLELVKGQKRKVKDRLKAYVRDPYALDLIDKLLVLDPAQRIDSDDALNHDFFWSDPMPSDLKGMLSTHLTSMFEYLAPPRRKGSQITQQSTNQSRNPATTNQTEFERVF
CDK9/CycT1, sequence (O60563 whole entry partner): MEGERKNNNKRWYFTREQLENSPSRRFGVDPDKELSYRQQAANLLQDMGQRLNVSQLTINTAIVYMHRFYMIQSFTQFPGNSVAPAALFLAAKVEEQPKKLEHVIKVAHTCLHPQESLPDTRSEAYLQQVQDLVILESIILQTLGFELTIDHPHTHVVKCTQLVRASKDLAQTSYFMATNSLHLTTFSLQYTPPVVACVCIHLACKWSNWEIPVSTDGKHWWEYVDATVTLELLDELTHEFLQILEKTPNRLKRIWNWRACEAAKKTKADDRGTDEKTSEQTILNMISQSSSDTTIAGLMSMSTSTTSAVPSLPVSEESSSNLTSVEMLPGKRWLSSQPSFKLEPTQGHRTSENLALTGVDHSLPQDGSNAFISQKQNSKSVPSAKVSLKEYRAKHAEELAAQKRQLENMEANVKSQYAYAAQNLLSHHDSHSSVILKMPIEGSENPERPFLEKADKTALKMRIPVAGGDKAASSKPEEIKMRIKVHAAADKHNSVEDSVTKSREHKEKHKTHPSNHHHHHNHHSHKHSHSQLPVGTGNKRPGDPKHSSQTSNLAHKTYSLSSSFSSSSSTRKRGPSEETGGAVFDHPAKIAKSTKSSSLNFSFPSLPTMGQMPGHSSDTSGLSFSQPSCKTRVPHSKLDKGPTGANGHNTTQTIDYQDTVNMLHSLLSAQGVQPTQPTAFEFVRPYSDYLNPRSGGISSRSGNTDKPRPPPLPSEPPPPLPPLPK
Description: 1a. CDK9/CycT1 Kinase Assay:
CDK9/CycT1-inhibitory activity of compounds of the present invention was quantified employing the CDK9/CycT1 TR-FRET assay as described in the following paragraphs:
Recombinant full-length His-tagged human CDK9 and CycT1, expressed in insect cells and purified by Ni-NTA affinity chromatography, were purchased from Invitrogen (Cat. No PV4131). As substrate for the kinase reaction biotinylated peptide biotin-Ttds-YISPLKSPYKISEG (C-terminus in amid form) was used which can be purchased e.g. form the company JERINI Peptide Technologies (Berlin, Germany).
For the assay 50 nl of a 100 fold concentrated solution of the test compound in DMSO was pipetted into a black low volume 384 well microtiter plate (Greiner Bio-One, Frickenhausen, Germany), 2 μl of a solution of CDK9/CycT1 in aqueous assay buffer [50 mM Tris/HCl pH 8.0, 10 mM MgCl2, 1.0 mM dithiothreitol, 0.1 mM sodium ortho-vanadate, 0.01% (v/v) Nonidet-P40 (Sigma)] were added and the mixture was incubated for 15 min at 22° C. to allow pre-binding of the test compounds to the enzyme before the start of the kinase reaction. Then the kinase reaction was started by the addition of 3 μl of a solution of adenosine-tri-phosphate (ATP, 16.7 μM=>final conc. in the 5 μl assay volume is 10 μM) and substrate (1.67 μM=>final conc. in the 5 μl assay volume is 1 μM) in assay buffer and the resulting mixture was incubated for a reaction time of 25 min at 22° C. The concentration of CDK9/CycT1 was adjusted depending of the activity of the enzyme lot and was chosen appropriate to have the assay in the linear range, typical concentrations were in the range of 1 μg/mL. The reaction was stopped by the addition of 5 μl of a solution of TR-FRET detection reagents (0.2 μM streptavidine-XL665 [Cisbio Bioassays, Codolet, France] and 1 nM anti-RB(pSer807/pSer811)-antibody from BD Pharmingen [#558389] and 1.2 nM LANCE EU-W1024 labeled anti-mouse IgG antibody [Perkin-Elmer, product no. AD0077]) in an aqueous EDTA-solution (100 mM EDTA, 0.2% (w/v) bovine serum albumin in 100 mM HEPES/NaOH pH 7.0).
The resulting mixture was incubated 1 h at 22° C. to allow the formation of complex between the phosphorylated biotinylated peptide and the detection reagents. Subsequently the amount of phosphorylated substrate was evaluated by measurement of the resonance energy transfer from the Eu-chelate to the streptavidine-XL. Therefore, the fluorescence emissions at 620 nm and 665 nm after excitation at 350 nm was measured in a HTRF reader, e.g. a Rubystar (BMG Labtechnologies, Offenburg, Germany) or a Viewlux (Perkin-Elmer). The ratio of the emissions at 665 nm and at […] was taken as the measure for the amount of phosphorylated substrate. The data were normalised (enzyme reaction without inhibitor=0% inhibition, all other assay components but no enzyme=100% inhibition).

[4] = system: HeLa-MaTu-ADR, multidrug-resistant human cervical carcinoma cells; experiment: Proliferation assay, HeLa-MaTu-ADR (crystal violet); format: cell-based; settings: 96 h, 4 days, read-out: Inhibition of HeLa-MaTu-ADR cell proliferation IC50
Description: as §1

[5] = system: Caco-2, human colorectal carcinoma cells; experiment: Proliferation assay, Caco-2 (crystal violet); format: cell-based; settings: 96 h, Caco-2, 4 days, read-out: Inhibition of Caco-2 cell proliferation IC50
Description: as §1

COc1cc(F)ccc1-c1cc(Nc2cc(CS(C)(=O)=O)ccn2)ncc1F [Example 1, 5-Fluoro-4-(4-fluoro-2-methoxyphenyl)-N-{4-[(methylsulfonyl)methyl]pyridin-2-yl}pyridin-2-amine]
IC50 [1]: 62 nM | IC50 [2]: 56 nM | IC50 [3]: 100 nM | IC50 (CDK9/CycT1): 2 nM | IC50 [4]: 37 nM | IC50 [5]: 70 nM

COc1cc(F)ccc1-c1cc(Nc2cc(CS(C)(=O)=O)cc(C)n2)ncc1F [Example 2, 5-Fluoro-4-(4-fluoro-2-methoxyphenyl)-N-{6-methyl-4-[(methylsulfonyl)methyl]pyridin-2-yl}pyridin-2-amine]
IC50 [1]: 94 nM | IC50 [2]: 84 nM | IC50 [3]: 100 nM | IC50 (CDK9/CycT1): 3 nM | IC50 [4]: 59 nM | IC50 [5]: 37 nM

COc1cc(F)ccc1-c1cc(Nc2cc(CS(C)(=O)=O)cc(F)n2)ncc1F [Example 3, 5-Fluoro-4-(4-fluoro-2-methoxyphenyl)-N-{6-fluoro-4-[(methylsulfonyl)methyl]pyridin-2-yl}pyridin-2-amine]
IC50 (CDK9/CycT1): 3 nM

COc1cc(F)ccc1-c1cc(Nc2cc(CS(C)(=O)=O)cc(C(F)(F)F)n2)ncc1F [Example 4, 5-Fluoro-4-(4-fluoro-2-methoxyphenyl)-N-{4-[(methylsulfonyl)methyl]-6-(trifluoromethyl)pyridin-2-yl}pyridin-2-amine]
IC50 (CDK9/CycT1): 4 nM

COc1cc(F)ccc1-c1cc(Nc2cc(CS(C)(=O)=O)cc(C(F)F)n2)ncc1F [Example 5, N-{6-(Difluoromethyl)-4-[(methylsulfonyl)methyl]pyridin-2-yl}-5-fluoro-4-(4-fluoro-2-methoxyphenyl)pyridin-2-amine]
IC50 (CDK9/CycT1): 2 nM
